Results: the NIST ThermoML archive (doi:10.1021/je900732r)

Assay: mn = molality of the nth substance listed, in mol/kg
Conditions: 101 kPa, Liquid

C[S+](C)[O-] [dimethyl sulfoxide] + [Co+2].[O-][Cl+3]([O-])([O-])[O-].[O-][Cl+3]([O-])([O-])[O-]
m2 = 0
Conditions	mass density [kg/m3]
293.15 K	1100.22
298.15 K	1095.19
303.15 K	1090.18
313.15 K	1080.12
323.15 K	1070.08
333.15 K	1060.03

C[S+](C)[O-] [dimethyl sulfoxide] + [Cu+2].[O-][Cl+3]([O-])([O-])[O-].[O-][Cl+3]([O-])([O-])[O-]
m2 = 0
Conditions	mass density [kg/m3]
293.15 K	1100.23
298.15 K	1095.2
303.15 K	1090.18
313.15 K	1080.12
323.15 K	1070.08
333.15 K	1060.04

C[S+](C)[O-] [dimethyl sulfoxide] + [Mn+2].[O-][Cl+3]([O-])([O-])[O-].[O-][Cl+3]([O-])([O-])[O-]
m2 = 0
Conditions	mass density [kg/m3]
293.15 K	1100.22
298.15 K	1095.19
303.15 K	1090.17
313.15 K	1080.12
323.15 K	1070.08
333.15 K	1060.04

C[S+](C)[O-] [dimethyl sulfoxide] + [Ni+2].[O-][Cl+3]([O-])([O-])[O-].[O-][Cl+3]([O-])([O-])[O-]
m2 = 0
Conditions	mass density [kg/m3]
293.15 K	1100.22
298.15 K	1095.19
303.15 K	1090.17
313.15 K	1080.12
323.15 K	1070.08
333.15 K	1060.04

C[S+](C)[O-] [dimethyl sulfoxide] + [O-][Cl+3]([O-])([O-])[O-].[O-][Cl+3]([O-])([O-])[O-].[Zn+2]
m2 = 0
Conditions	mass density [kg/m3]
293.15 K	1100.23
298.15 K	1095.2
303.15 K	1090.18
313.15 K	1080.12
323.15 K	1070.08
333.15 K	1060.04

[Mn+2].[O-][Cl+3]([O-])([O-])[O-].[O-][Cl+3]([O-])([O-])[O-] [manganese (II) perchlorate] + C[S+](C)[O-]
mass density [kg/m3]
Conditions	293.15 K	298.15 K	303.15 K	313.15 K	323.15 K	333.15 K
m1 = 0.01626	1103.52	1098.5	1093.49	1083.46	1073.44	1063.42
m1 = 0.0211	1104.5	1099.48	1094.47	1084.45	1074.44	1064.43
m1 = 0.02843	1105.99	1100.98	1095.97	1085.96	1075.96	1065.96
m1 = 0.037	1107.74	1102.73	1097.73	1087.73	1077.74	1067.75
m1 = 0.04758	1109.9	1104.9	1099.91	1089.92	1079.94	1069.97
m1 = 0.05763	1111.96	1106.97	1101.98	1092.01	1082.05	1072.09
m1 = 0.07358	1115.24	1110.26	1105.28	1095.33	1085.39	1075.45
m1 = 0.09456	1119.59	1114.62	1109.65	1099.73	1089.82	1079.91
m1 = 0.1139	1123.62	1118.65	1113.7	1103.8	1093.92	1084.04
m1 = 0.1337	1127.77	1122.82	1117.87	1108	1098.14	1088.29
m1 = 0.1569	1132.59	1127.65	1122.73	1112.88	1103.06	1093.24
m1 = 0.1754	1136.6	1131.67	1126.75	1116.94	1107.13	1097.34

CO [methanol] + O=S(=O)([O-])C(F)(F)F.O=S(=O)([O-])C(F)(F)F.[Cu+2]
m2 = 0
Conditions	mass density [kg/m3]
283.15 K	800.548
288.15 K	795.857
293.15 K	791.162
298.15 K	786.452
303.15 K	781.722
308.15 K	776.978
313.15 K	772.2

CO [methanol] + [Co+2].[O-][Cl+3]([O-])([O-])[O-].[O-][Cl+3]([O-])([O-])[O-]
m2 = 0
Conditions	mass density [kg/m3]
283.15 K	800.55
288.15 K	795.872
293.15 K	791.172
298.15 K	786.464
303.15 K	781.742
308.15 K	776.992
313.15 K	772.214

CO [methanol] + [Ni+2].[O-][Cl+3]([O-])([O-])[O-].[O-][Cl+3]([O-])([O-])[O-]
m2 = 0
Conditions	mass density [kg/m3]
283.15 K	800.541
288.15 K	795.866
293.15 K	791.169
298.15 K	786.46
303.15 K	781.733
308.15 K	776.979
313.15 K	772.189
